IC50 data for 23 molecules are collected here from patent US20260184707A1, “PHARMACEUTICAL COMPOUNDS FOR THE TREATMENT OF COMPLEMENT MEDIATED DISORDERS” (ALEXION PHARMACEUTICALS, INC., priority 2022, published 2026).

Some results are limits rather than exact numbers.

Broadly, the IC50 is the concentration needed to halve the response being measured.

In the test the target is T1, Human complement C1s enzyme (Homo sapiens, UniProt P09871).
T1 construct: purified from human serum, Complement Technology, Inc; purchased Complement Technology, Inc; host or cells: human serum (plasma-derived native protein)
T1 sequence (P09871 438-688 limits assumed): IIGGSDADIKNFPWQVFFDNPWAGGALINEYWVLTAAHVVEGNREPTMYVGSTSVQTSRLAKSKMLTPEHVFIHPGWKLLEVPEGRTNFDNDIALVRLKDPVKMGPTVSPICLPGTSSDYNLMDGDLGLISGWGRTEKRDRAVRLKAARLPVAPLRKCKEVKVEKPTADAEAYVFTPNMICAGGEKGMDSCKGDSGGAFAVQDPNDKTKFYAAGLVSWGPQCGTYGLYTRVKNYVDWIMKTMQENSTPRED
T1 sequence (P09871 16-437 partner limits assumed): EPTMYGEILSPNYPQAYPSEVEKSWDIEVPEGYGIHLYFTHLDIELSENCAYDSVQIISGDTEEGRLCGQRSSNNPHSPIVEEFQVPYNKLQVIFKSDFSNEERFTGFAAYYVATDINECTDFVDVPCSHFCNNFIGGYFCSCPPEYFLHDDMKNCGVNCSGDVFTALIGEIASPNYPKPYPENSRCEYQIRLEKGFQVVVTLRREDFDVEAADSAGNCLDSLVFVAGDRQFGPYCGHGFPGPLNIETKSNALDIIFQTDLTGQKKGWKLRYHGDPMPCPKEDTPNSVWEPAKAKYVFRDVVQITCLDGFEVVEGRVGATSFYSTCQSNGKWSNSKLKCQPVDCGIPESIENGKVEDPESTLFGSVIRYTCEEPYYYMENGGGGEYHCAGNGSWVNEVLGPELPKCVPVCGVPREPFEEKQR
Kind of test: Human C1s enzyme assay. It counts as biochemical. The following applies: human complement C1s enzyme 1.16 nM, substrate Z-L-Lys-SBzl, A405; read-out: IC50 (Stars). A digest of the protocol: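 Thioesterase activity followed colorimetrically (DTNB, A405, 30-s reads) using 100 μM Z-L-Lys-SBzl substrate. Enzyme, human serum-derived C1s at 1.16 nM final, was incubated with test compound for 5 min, room temperature, pH 7.5 Tris buffer with 1 M NaCl. Rate-versus-concentration data fitted by nonlinear regression for IC50.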

Consider `O=C(Cn1c(-c2ccccc2)ncc(NC(=O)c2nnc(-c3ccccc3)o2)c1=O)NCc1cc2cnccc2[nH]1` [Compound 223, N-(1-(2-(((1H-pyrrolo[3,2-c]pyridine-2-yl)methyl)amino)-2-oxoethyl)-6-oxo-2-phenyl-1,6-dihydropyrimidin-5-yl)-5-phenyl-1,3,4-oxadiazole-2-carboxamide], for which the IC50 is under 100 nM.
The result for `O=C(Cn1c(-c2ccccc2)ncc(Nc2ccc(-c3ccccc3)cc2)c1=O)NCc1cc2cnccc2[nH]1` [Compound 224, N-((1H-pyrrolo[3,2-c]pyridin-2-yl)methyl)-2-(5-([1,1′-biphenyl]-4-ylamino)-6-oxo-2-phenylpyrimidin-1(6H)-yl)-acetamide] reads 100 to 1000 nM; that for `O=C(Cn1c(-c2ccc(OCc3ccccn3)cc2)ncc(NC(=O)c2ccc(-c3ccccc3)cc2)c1=O)NCc1cc2cnccc2[nH]1` [Compound 225, N-[6-Oxo-1-[2-oxo-2-(1H-pyrrolo[3,2-c]pyridine-2-ylmethylamino)ethyl]-2-[4-(2-pyridylmethoxy)phenyl]pyrimidin-5-yl]-4-phenyl-benzamide], under 100 nM; that for `O=C(Cn1c(-c2ccc(F)c(F)c2)ncc(NC(=O)c2ccc(-c3ccccc3)cc2)c1=O)NCc1cc2cnccc2[nH]1` [Compound 226, N-(1-(2-(((1H-pyrrolo[3,2-c]pyridin-2-yl)methyl)amino)-2-oxoethyl)-2-(3,4-difluorophen-yl)-6-oxo-1,6-dihydropyrimi-din-5-yl)-[1,1′-biphenyl]-4-carboxamide], under 100 nM.
For `O=C(Cn1c(-c2ccccc2)ncc(NC(=O)c2csc(-c3cccs3)n2)c1=O)NCc1cc2cnccc2[nH]1` [Compound 227, N-(1-(2-(((1H-pyrrolo[3,2-c]pyridin-2-yl)methyl)amino)-2-oxoethyl)-6-oxo-2-phenyl-1,6-dihydropyrimidin-5-yl)-2-(thiophen-2-yl)thiazole-4-carboxamide], the IC50 is under 100 nM.
Take `O=C(Cn1c(-c2ccccc2)ncc(Nc2ccc(Oc3ccccc3)cc2)c1=O)NCc1cc2cnccc2[nH]1` [Compound 228, N-((1H-pyrrolo[3,2-c]pyridin-2-yl)methyl)-2-(6-oxo-5-((4-phenoxyphenyl)amino)-2-phenylpyrimidin-1(6H)-yl)-acetamide]: the IC50 is under 100 nM.
For `C[C@@H](Nc1cnc(-c2cccc(F)c2)n(CC(=O)NCc2cc3cnccc3[nH]2)c1=O)c1ccc2oc3ccccc3c2c1` [Compound 229, (R)-N-((1H-pyrrolo[3,2-c]pyr-idin-2-yl)methyl)-2-(5-((1-(dibenzo[b,d]furan-2-yl)ethyl)-amino)-2-(3-fluorophenyl)-6-oxopyrimidin-1(6H)-yl)acet-amide], the IC50 was under 100 nM.
As for `C[C@@H](Nc1cnc(-c2ccc(S(C)(=O)=O)cc2)n(CC(=O)NCc2cc3cnccc3[nH]2)c1=O)c1ccc2oc3ccccc3c2c1` [Compound 230, (R)-N-((1H-pyrrolo[3,2-c]pyr-idin-2-yl)methyl)-2-(5-((1-(dibenzo[b,d]furan-2-yl)ethyl)-amino)-2-(4-(methylsulfonyl)-phenyl)-6-oxopyrimidin-1(6H)-yl)acetamide], the IC50 was under 100 nM.
Regarding `O=C(Cn1c(-c2ccccc2)ncc(NC(=O)c2coc(-c3cccnc3)n2)c1=O)NCc1cc2cnccc2[nH]1` [Compound 231, N-(1-(2-(((1H-pyrrolo[3,2-c]pyridine-2-yl)methyl)amino)-2-oxoethyl)-6-oxo-2-phenyl-1,6-dihydropyrimidin-5-yl)-2-(pyridine-3-yl)oxazole-4-carboxamide], the IC50 is under 100 nM.
In the case of `O=C(Cn1c(-c2ccco2)ncc(NCc2ccc3oc4ccccc4c3c2)c1=O)NCc1cc2cnccc2[nH]1` [Compound 232, N-((1H-pyrrolo[3,2-c]pyridin-2-yl)methyl)-2-(5-((dibenzo [b,d]furan-2-ylmethyl)amino)-2-(furan-2-yl)-6-oxopyrimidin-1(6H)-yl)acetamide], the IC50 was under 100 nM.
Take `O=C(Cn1c(-c2ccccc2)ncc(NCc2coc(-c3ccccc3)n2)c1=O)NCc1cc2cnccc2[nH]1` [Compound 233, N-((1H-pyrrolo[3,2-c]pyridin-2-yl)methyl)-2-(6-oxo-2-phen-yl-5-(((2-phenyloxazol-4-yl)-methyl)amino)pyrimidin-1(6H)-yl)acetamide]: the IC50 was under 100 nM.
For `O=C(Cn1c(-c2ccccc2)ncc(Nc2ccc3oc4ccccc4c3c2)c1=O)NCc1cc2cnccc2[nH]1` [Compound 234, N-((1H-pyrrolo[3,2-c]pyridin-2-yl)methyl)-2-(5-(dibenzo [b,d]furan-2-ylamino)-6-oxo-2-phenylpyrimidin-1(6H)-yl)-acetamide], the IC50 was under 100 nM.
To `O=C(Cn1c(-c2ccccc2)ncc(NC(=O)c2ccc(-c3ccccc3)s2)c1=O)Nc1nc2cnccc2s1` [Compound 235, N-(6-ox0-1-(2-oxo-2-(thiazolo [4,5-c]pyridin-2-ylamino)-ethyl)-2-phenyl-1,6-dihydro-pyrimidin-5-yl)-5-phenylthio-phene-2-carboxamide] belongs over 1000 nM; to `O=C(Cn1c(-c2ccccc2)ncc(Nc2cccc(-c3ccc(F)cc3)c2)c1=O)NCc1cc2cnccc2[nH]1` [Compound 236, N-((1H-pyrrolo[3,2-c]pyridin-2-yl)methyl)-2-(5-((4′-fluoro-[1,1′-biphenyl]-3-yl)amino)-6-oxo-2-phenylpyrimidin-1(6H)-yl)acetamide], under 100 nM.
As for `C[C@@H](Nc1cnc(-c2ccccc2F)n(CC(=O)NCc2cc3cnccc3[nH]2)c1=O)c1ccc2oc3ccccc3c2c1` [Compound 237, (R)-N-((1H-pyrrolo[3,2-c]pyr-idin-2-yl)methyl)-2-(5-((1-(dibenzo[b,d]furan-2-yl)ethyl)-amino)-2-(2-fluorophenyl)-6-oxopyrimidin-1(6H)-yl)acet-amide], the IC50 is under 100 nM.
Consider `CO[C@@H]1CO[C@H]2[C@@H]1OC[C@H]2Oc1ccc(-c2ncc(N[C@H](C)c3ccc4oc5ccccc5c4c3)c(=O)n2CC(=O)NCc2cc3cnccc3[nH]2)cc1` [Compound 238, N-((1H-pyrrolo[3,2-c]pyridin-2-yl)methyl)-2-(5-(((R)-1-(dibenzo[b,d]furan-2-yl)ethyl)-amino)-2-(4-(((3R,3aR,6R, 6aR)-6-methoxyhexahydrofuro [3,2-b]furan-3-yl)oxy)phenyl)-6-oxopyrimidin-1(6H)-yl)acet-amide], for which the IC50 was under 100 nM.
To `C[C@H](NC(=O)Cn1c(-c2ccccc2)ncc(N[C@H](C)c2ccc3oc4ccccc4c3c2)c1=O)c1cc2cnccc2[nH]1` [Compound 239, N-((S)-1-(1H-pyrrolo[3,2-c]pyridin-2-yl)ethyl)-2-(5-(((R)-1-(dibenzo[b,d]furan-2-yl)-ethyl)amino)-6-oxo-2-phenyl-pyrimidin-1(6H)-yl)acetamide] belongs over 1000 nM; to `O=C(Cn1c(-c2ccccc2)ncc(NC(=O)c2ccc(-c3ccccc3)c(F)c2)c1=O)NCc1cc2cnccc2[nH]1` [Compound 240, N-(1-(2-(((1H-pyrrolo[3,2-c]pyridin-2-yl)methyl)amino)-2-oxoethyl)-6-oxo-2-phenyl-1,6-dihydropyrimidin-5-yl)-2-fluoro-[1,1′-biphenyl]-4-carboxamide], under 100 nM.
Turning to `O=C(Cn1c(C2=CCCCC2)ncc(NCc2ccc3oc4ccccc4c3c2)c1=O)NCc1cc2cnccc2[nH]1` [Compound 241, N-((1H-pyrrolo[3,2-c]pyridin-2-yl)methyl)-2-(2-(cyclohex-1-en-1-yl)-5-((dibenzo[b,d]furan-2-ylmethyl)amino)-6-oxopyrimidin-1(6H)-yl)acet-amide], the IC50 was under 100 nM.
For `O=C(Cn1c(-c2cccnc2)ncc(NCc2ccc3oc4ccccc4c3c2)c1=O)NCc1cc2cnccc2[nH]1` [Compound 242, N-((1H-pyrrolo[3,2-c]pyridin-2-yl)methyl)-2-(5-((dibenzo [b,d]furan-2-ylmethyl)amino)-6-oxo-2-(pyridin-3-yl)pyrimi-din-1(6H)-yl)acetamide], the IC50 is under 100 nM.
In the case of `O=C(Cn1c(-c2ccccc2)ncc(NC(=O)C23CC(c4ccccc4)(C2)C3)c1=O)NCc1cc2cnccc2[nH]1` [Compound 243, N-(1-(2-(((1H-pyrrolo[3,2-c]pyridin-2-yl)methyl)amino)-2-oxoethyl)-6-oxo-2-phenyl-1,6-dihydropyrimidin-5-yl)-3-phenylbicyclo[1.1.1]pentane-1-carboxamide], the IC50 was in the range of 100 to 1000 nM.
`Cc1cc(F)cc(C)c1Nc1cnc(-c2ccccc2)n(CC(=O)NCc2cc3cnccc3[nH]2)c1=O` [Compound 244, N-((1H-pyrrolo[3,2-c]pyridin-2-yl)methyl)-2-(5-((4-fluoro-2,6-dimethylphenyl)amino)-6-oxo-2-phenylpyrimidin-1(6H)-yl)acetamide]: the IC50 was under 100 nM.
The result for `O=C(Cn1c(-c2ccccc2)ncc(Nc2ccc3c(c2)oc2ccccc23)c1=O)NCc1cc2cnccc2[nH]1` [Compound 245] reads under 100 nM.
